Results as given in patent US9896551B2, “Phosphaphenanthrene-based compound and related preparation method and application” (Elite Electronic Material(Zhongshan) Co., Ltd., priority 2015, dated 2018).

Experiments:
Assay type in all cases: physicochemical
[1] = Test Example 1: solvent compatibility, observed by naked eyes; conditions: for Compatibility in solvent (precipitation, appearance of solution): stand for 12 hours; for Compatibility in solvent (solubility, appearance of solution): the initial state
From the text: The phosphaphenanthrene-based compound of the embodiment 2, the conventional phosphaphenanthrene-based compound of the comparison 1 and the conventional phosphaphenanthrene-based compound of the comparison 2 are used as test samples of the test example 1. The test samples are respectively dissolved in toluene, methyl ethyl ketone, and acetone, so as to give a test to the compatibilities of the test samples in these solvents.

[2] = Dissolution of the phosphaphenanthrene-based compound in different solvents; parameters: key: 1: “easily soluble”, which means the solute is dissolved with stirring at room temperature and the solution is clear; “soluble”, which means the solute is dissolved with stirring when being heated up to 120° C. and the solution is clear; 3: “insoluble”, which means the solute is not dissolve even being heated and stirred; conditions: about 5 grams in about 30 ml
Experimental: (§1) In addition, about 5 grams per serving of the phosphaphenanthrene-based compound are weighed and added to about 30 ml of solvents respectively. Stir with or without heating the solution to dissolve the solute. Observe the dissolution of the phosphaphenanthrene-based compound in different solvents, and the results are shown in Table 1, wherein the numeral “1” represents “easily soluble”, which means the solute is dissolved with stirring at room temperature and the solution is clear; the numeral “2” represents “soluble”, which means the solute is dissolved with stirring when being heated up to 120° C. and the solution is clear; the numeral “3” represents “insoluble”, which means the solute is not dissolve even being heated and stirred.
In addition, about 5 grams per serving of the phosphaphenanthrene-based compound (as shown in formula (XVI)) are weighed and added to about 30 ml of solvents respectively. Stir with or without heating to dissolve the solute. Observe dissolution of the phosphaphenanthrene-based compound in different solvents, and the results are shown in Table 2, wherein the numeral “1” represents “easily soluble”, which means the solute is dissolved with stirring at room temperature and the solution is clear; the numeral “2” represents “soluble”, which means the solute is dissolved with stirring when being heated up to […] and the solution is clear; the numeral “3” represents “insoluble”, which means the solute is not dissolve even being heated and stirred.

[3] = as above; parameters: key: 1: “easily soluble”, which means the solute is dissolved with stirring at room temperature and the solution is clear; “soluble”, which means the solute is dissolved with stirring when being heated up to […] and the solution is clear; 3: “insoluble”, which means the solute is not dissolve even being heated and stirred; conditions: Methyl ethyl ketone; about 5 grams in about 30 ml
Experimental: as §1
In addition, about 5 grams per serving of the phosphaphenanthrene-based compound (as shown in formula (XVI)) are weighed and added to about 30 ml of solvents respectively. Stir with or without heating to dissolve the solute. […]

Row | Compound | Compatibility in solvent (precipitation, appearance of solution) ([1]; Acetone) | Compatibility in solvent (solubility, appearance of solution) ([1]; Acetone) | Compatibility in solvent (precipitation, appearance of solution) ([1]; Methyl ethyl ketone) | Compatibility in solvent (solubility, appearance of solution) ([1]; Methyl ethyl ketone) | Compatibility in solvent (precipitation, appearance of solution) ([1]; Toluene) | Compatibility in solvent (solubility, appearance of solution) ([1]; Toluene) | Dissolution ([2]; Dimethylacetamide) | Dissolution ([2]; Dimethylformamide) | Dissolution ([2]; Toluene) | Dissolution [3] | Dissolution ([2]; 1-Methoxy-2-propyl acetate (PMA)) | Dissolution ([2]; Cyclohexanone (CYC)) | Dissolution ([2]; Dimethylacetamide (DMAC)) | Dissolution ([2]; Methanol (MT)) | Dissolution ([2]; Methyl ethyl ketone (MEK)) | Dissolution ([2]; N,N-Dimethylformamide (DMF)) | Dissolution ([2]; Proprylene glycol monomethyl ether (PM)) | Dissolution ([2]; Toluene (TL))
1 | C=Cc1ccc(COc2ccc(OCc3ccc(C=C)cc3)c(P3(=O)Oc4ccccc4-c4ccccc43)c2)cc1 (stereo not drawn) [Comparison 1] | Precipitated | Soluble, clear | Precipitated | Soluble, clear | No | Soluble, clear | – | – | – | – | – | – | – | – | – | – | – | –
2 | C=Cc1ccc(COC(c2ccc(C(OCc3ccc(C=C)cc3)P3(=O)Oc4ccccc4-c4ccccc43)cc2)P2(=O)Oc3ccccc3-c3ccccc32)cc1 (stereo not drawn) [Embodiment 2] | No | Soluble, clear | No | Soluble, clear | No | Soluble, clear | 1 | 1 | 1 | 2 | – | – | – | – | – | – | – | –
3 | C=Cc1ccc(COc2ccc(-c3ccc(OCc4ccc(C=C)cc4)c(P4(=O)Oc5ccccc5-c5ccccc54)c3)cc2P2(=O)Oc3ccccc3-c3ccccc32)cc1 (stereo not drawn) [Comparison 2] | Precipitated | Soluble, clear | Precipitated | Soluble, clear | No | Soluble, clear | – | – | – | – | – | – | – | – | – | – | – | –
4 | O=P1(C(O)c2ccc(C(O)P3(=O)Oc4ccccc4-c4ccccc43)cc2)Oc2ccccc2-c2ccccc21 (stereo not drawn) [Embodiment 1] | – | – | – | – | – | – | – | – | – | – | 3 | 3 | 3 | 3 | 3 | 2 | 3 | 3
